Test results taken from patent publication US20230123497A1, “NOVEL ANTIBACTERIAL HYDROGELS” (NewSouth Innovations Pty Limited, priority 2020, published 2023).
“And” between values parts separate entries of the source, which are not always exact repeats. Equal values may be shown once.

Experiments:
[1] = Hydrogel formation, vial inversion test (critical gel concentration); format: physicochemical; design: key: CG: clear gel; PG: partial gel; OG: opagque gel; conditions: cationic peptides 15-19
Source text: (§1) The simplest method to determine whether a suitable hydrogel has formed is to use the vial inversion test. Through visual inspection, a material can be categorised as a solution, viscous solution, partial gel, or solid-like gel. A stable hydrogel needs to be able to hold its weight and/or maintain its shape during this assessment.
(§2) The critical gel concentration (CGC) is defined as the minimum mass of a short peptide required to provide a self-supporting hydrogel per unit volume in the vial inversion test (measured as % w/v).
(§3) Pre-weighed samples of short peptide 4 were prepared in aluminium-covered glass vials and Milli-Q water and 2 equivalents of NaOH (1.0 M) were added to make up concentrations of 1% w/v. The resulting suspensions were vortexed for 5 minutes to provide clear yellow solutions with pH 11.
To create a high ionic strength environment, 1 equivalent of NaCl was added and the vial was left to stand without disturbance for 3 hours at room temperature. Meanwhile, as an attempt to form a hydrogel by lowering the pH, 2 equivalents of GdL were added to a high pH solution of 4 followed by gentle mixing. These vials were inverted and allowed to stand overnight to confirm the hydrogel formation. […]

[2] = Strain sweep test (SST), linear viscoelastic region; format: physicochemical; conditions: hydrogels at 1% w/v, SST at 1 Hz, 0.1% to 100% strain
Protocol: (§4) Initially, 1 mL of hydrogels were prepared from short peptides 11-13 and 15-19 in glass vials at concentration of 1% w/v. These vials were warmed using a heat gun to transform the hydrogel to the solution phase. Subsequently, 560 μL of the resulting solutions were cast onto the rheometer plate. The other plate was lowered to the measuring position ([…]) and the hydrogel was allowed to stand for 3 hours for the gel to form. The FST was conducted at fixed strain of 0.1% and frequency ranging from 10 Hz to 0.01 Hz. Meanwhile, the strain sweep test (SST) was performed at a frequency of 1 Hz using 0.1% strain to 100% strain. The rheology data were shown as the average of three repeats for each data point.
(§5) The mechanical properties of hydrogels 4 (formed via addition of NaCl or GdL) before and after blue light irradiation were also assessed using an Anton Paar MCR 302 rheometer with a 25 mm stainless parallel plate configuration. Prior to the hydrogel formation, 560 μL of solution phase of short peptide 4 at 1% w/v were transferred onto a rheometer plate. Meanwhile, hydrogel 4, which had been exposed to blue light, was warmed using a heat gun, to provide its solution phase. Subsequently, 560 μL of this solution phase was cast onto the rheometer plate. The other plate was lowered to the measuring position ([…]) and the hydrogel was allowed to stand for 3 hours for the gel to form. The frequency sweep test (FST) was conducted at fixed strain of 0.1% and frequency ranging from 10 Hz to 0.01 Hz. Meanwhile, the SST was performed at a frequency of 1 Hz using 0.1% strain to 100% strain. In addition, the temperature sweep test was conducted to obtain transition glass (Tg) using fixed frequency of 1 Hz and fixed strain of 0.1% with temperature ramping from 25° C. to 90° C. The rheology data were shown as the average of three repeats for each data point.
To observe the structural decay in anthranilamide-based cationic hydrogels, the SST was performed by imposing a non-linear strain. SST provides information about the viscoelastic properties of a hydrogel through determination of its linear viscoelastic region (LVER). […] Here, the LVER reported for each hydrogel represents the deviation of storage modulus (G′) from linearity, known as yield point (γy). Yield points have been reported to reflect a point where the rigidity of a hydrogel starts to weaken.

S. aureus 38 = assay: Antibacterial activity of cationic hydrogels, viable count method; format: cell-based, Staphylococcus aureus; conditions: hydrogel at 1% w/v in contact with S. aureus, compared to control
Protocol: The antibacterial activity of the anthranilamide-based cationic hydrogels 11-13 and 15-19 was investigated in vitro against S. aureus. The antibacterial activity of anthranilamide-based cationic hydrogel 11 was also investigated in vitro against E. coli.
First, a single colony of S. aureus 38 or E. coli K12 was grown in Luria-Bertani (LB) broth medium at 37° C. overnight. The resulting bacteria were harvested, via centrifugation, to obtain a bacteria pellet which was re-suspended in the same volume of LB medium, twice. The optical density (OD) value of the resulting culture was adjusted to 0.1 at 600 nm in LB (10^8 cfu·mL^−1). This bacteria solution was then further adjusted to 3×10^4 cfu mL^−1. (CFU or cfu=colony-forming unit). Bacteria solutions (1 mL), which contain either 10^8 CFUs/mL or 3×10^4 CFUs/mL, were gently added to hydrogel 11 at 1% w/v with total volume of 1 mL. Anthranilamide-based cationic hydrogels 11-13 and 15-19 (1 mL) were prepared at 1% w/v in glass vials as described above. On top of these pre-formed hydrogels, 1 mL of bacteria solution was carefully cast. […] As a negative control, a bacterial solution in the absence of hydrogel was used. After being incubated at 37° C. for 18 hours, 100 μL of bacteria solution in each vial was taken and subjected to serial dilution using phosphate buffer solution (PBS). 20 μL of each dilution were carefully transferred into nutrient agar plates and incubated for another 18 hours. The following day, bacterial growth inhibition was quantified using the viable count method. The experiment was performed twice in triplicate and multiple sample comparison was performed using one-way ANOVA at p<0.05.

[3] = Frequency sweep test (FST), rheometer; format: physicochemical; conditions: hydrogels 15-19 at 1% w/v
Protocol: The mechanical properties of anthranilamide-based cationic hydrogels were assessed using an Anton Paar MCR 302 rheometer with a 25 mm stainless parallel plate configuration.
as §4, §5
In the FST, samples were measured over a range of oscillation frequencies (0.1-10 rad/s) at fixed strain, temperature, and oscillation amplitude. Higher frequencies simulate fast motion on a short time-scale, while low frequencies simulate slow motion on a long time-scale, or rest. All of the hydrogels made from the anthranilamide-based short cationic peptides, which passed the vial inversion test, were subjected to the FST using a rheometer to precisely assess their mechanical properties.

[4] = Atomic force microscopy (AFM) of fibers; format: physicochemical; conditions: hydrogel after addition of salt, 4× below CGC
Protocol: Hydrogels of NO-releasing short peptide 4 (1 drop), at high pH, low pH, and after irradiation, were cast onto a mica substrate. Hydrogels of cationic short peptides 11-13 and 15-19 were prepared at their CGC, 2× below, and 4× below CGC in glass vials. Prior to gelation, one drop of the cationic short peptide solutions was cast onto a mica substrate. Using a glass slide, each droplet was carefully spread and was left to dry overnight before imaging. Imaging was performed using a Bruker Multimode 8 Atomic Force Microscope in Scanasyst Air (PeakForce Tappings) mode, which is based on tapping mode AFM. To prevent damage of soft samples, the imaging parameters were constantly optimized through the force curves that were collected. Bruker Scanasyst-Air probes were used, with a spring constant of 0.4-0.8 N·m^−1 and a tip radius of 2 nm.
To gain some insight on the mechanism of antibacterial action, the released solutions from hydrogel made of primary ammonium 11 were directly cast onto a mica substrate. […] After gently spreading using a glass slide and left to dry overnight, these samples were imaged using a similar manner as describe above.

[5] = Hydrogel formation, vial inversion test (critical gel concentration); format: physicochemical
Source text: as §1, §2, §3
To create a high ionic strength environment, 1 equivalent of NaCl was added and the vial was left to stand without disturbance for 3 hours at room temperature. Meanwhile, as an attempt to form a hydrogel by lowering the pH, 2 equivalents of GdL were added to a high pH solution of 4 followed by gentle mixing. These vials were inverted and allowed to stand overnight to confirm the hydrogel formation.
The formation of hydrogel 4 via the solvent switch method was conducted by dissolving short peptide 4, in an aluminium covered glass vial, with either 50% methanol, ethanol, or dimethyl sulfoxide (DMSO). Respective amounts of Mili-Q water were added to make up concentrations of 1% w/v.
In addition, gelation time was defined as the time (hours) required for 1% w/v of short peptide 4 to form a hydrogel which can be turned upside down without collapsing.
Pre-weighed samples of short peptides 10a-17a, 18, and 19 were prepared in glass vials with 10 mm internal diameter, and Milli-Q water was added to make up concentrations of 1% w/v. The resulting suspensions of short peptides 13, 18, and 19 (as ammonium or guanidinium salts) were slowly warmed until all solid had completely dissolved. GdL (1.5 to 2.0 equivalents) was added to the suspension of short peptides 10a-17a, before heat was applied. To create a high ionic strength environment, 1-5 equivalents of NaCl was added to the viscous solution of 10a-17a to make the total volume up to 1 mL, followed by gentle mixing, and the vial was left to stand without disturbance for 3 hours at room temperature. Subsequently, these vials were inverted and allowed to stand overnight to confirm hydrogel formation.

Question: Which “Remarks (gel state)” value [1] does the source give for `CN(C)CCCNC(=O)[C@H](Cc1ccccc1)NC(=O)c1ccc(Cl)cc1NC(=O)c1ccc2ccccc2c1` [Compound 16] here?
Answer: Its value is “OG”.

Question: And the “LVER (linear viscoelastic region)” value [2]?
Answer: The value was 1.66% and 1.66 ± 0.10%.

Question: And the bacterial reduction (S. aureus 38)?
Answer: Its bacterial reduction is 5.0 Log10.

Question: And the “G′/G″ ratio” value [3]?
Answer: Its value is 10.6.

Question: And the “G′ (modulus storage)” value ([3]; FST fixed strain 0.1%)?
Answer: The value was 0.53 kPa.

Question: And the “G″ (modulus loss)” value ([3]; FST fixed strain 0.1%)?
Answer: The value was 0.05 kPa.

Question: And the fiber bundle diameter [4]?
Answer: The fiber bundle diameter was 99±6 nm.

Question: And the CGC ([5]; cationic peptides 15-19, triggers GdL, heat and NaCl (18, 19: heat and NaCl))?
Answer: The CGC was 0.2 % W/V.

Question: What about the pH ([5]; hydrogels of cationic peptides 15-19) of the same molecule?
Answer: Its pH is 5.5.
